# Target: Hypoxia-inducible factor 1-alpha (Homo sapiens, UniProt Q16665)
# Test: ChEBML_1685544
# Source text: Inhibition of hypoxia-induced HIF1alpha (unknown origin) transcriptional activity expressed in human HCT116 cells by HRE luciferase reporter gene assay
# Hypoxia-inducible factor 1-alpha, sequence (Q16665 whole entry): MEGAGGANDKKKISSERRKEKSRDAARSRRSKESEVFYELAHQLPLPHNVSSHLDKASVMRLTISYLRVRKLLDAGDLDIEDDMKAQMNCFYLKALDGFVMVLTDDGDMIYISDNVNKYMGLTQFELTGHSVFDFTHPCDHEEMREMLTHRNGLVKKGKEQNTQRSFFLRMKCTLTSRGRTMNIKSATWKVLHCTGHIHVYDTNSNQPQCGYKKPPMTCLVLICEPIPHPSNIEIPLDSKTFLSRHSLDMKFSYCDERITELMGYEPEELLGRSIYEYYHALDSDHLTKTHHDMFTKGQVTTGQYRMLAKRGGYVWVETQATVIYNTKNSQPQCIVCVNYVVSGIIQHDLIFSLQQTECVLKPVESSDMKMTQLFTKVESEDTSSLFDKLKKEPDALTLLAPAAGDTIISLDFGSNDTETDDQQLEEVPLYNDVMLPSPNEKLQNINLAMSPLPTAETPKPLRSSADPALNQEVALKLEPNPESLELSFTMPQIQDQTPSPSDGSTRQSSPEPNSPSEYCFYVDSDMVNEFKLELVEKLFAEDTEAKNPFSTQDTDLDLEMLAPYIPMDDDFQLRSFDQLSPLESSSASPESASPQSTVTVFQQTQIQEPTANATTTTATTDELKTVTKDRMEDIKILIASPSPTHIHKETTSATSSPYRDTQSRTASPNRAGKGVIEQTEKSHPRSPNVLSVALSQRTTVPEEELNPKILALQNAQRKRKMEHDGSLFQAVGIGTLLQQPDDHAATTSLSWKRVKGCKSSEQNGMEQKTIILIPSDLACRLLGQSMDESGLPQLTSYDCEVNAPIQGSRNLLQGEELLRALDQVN
row,Compound,IC50
1,CO/N=C/c1ccc(OC)c(OCc2ccccc2/C(=N\OC)C(=O)OC)c1,14.9 µM
2,CO/N=C(\C)c1cccc(OCc2ccccc2/C(=N\OC)C(=O)OC)c1,4.52 µM
3,CO/N=C/c1cccc(OCc2ccccc2/C(=N\OC)C(=O)OC)c1,3.4 µM
4,CO/N=C(/C(=O)OC)c1ccccc1COc1cccc(O)c1,9.16 µM

# Continued, values first:
row,IC50,Compound
1,0.94 µM,CO/N=C(/C(=O)OC)c1ccccc1COc1cccc(OCc2cc(C(F)(F)F)cc(C(F)(F)F)c2)c1
2,0.87 µM,C=Cc1ccc(COc2cccc(OCc3ccccc3/C(=N\OC)C(=O)OC)c2)cc1
3,0.6 µM,CO/N=C(/C(=O)OC)c1ccccc1COc1cccc(OCc2ccc(Cl)cc2)c1
4,> 20 µM,CO/N=C(/C(=O)OC)c1ccccc1COc1cccc(OCC#N)c1
5,1.12 µM,CO/N=C(/C(=O)OC)c1ccccc1COc1cccc(OCc2ccccc2)c1

# Reference: BindingDB's records for doi:10.1016/j.bmcl.2017.05.024 (Yeungnam University, 2017)
